Experiment [1] concerns the target T1, human NaPi-IIb (Homo sapiens, UniProt O95436).
T1 construct: expressed in transfected cells
T1 sequence (O95436 1-690): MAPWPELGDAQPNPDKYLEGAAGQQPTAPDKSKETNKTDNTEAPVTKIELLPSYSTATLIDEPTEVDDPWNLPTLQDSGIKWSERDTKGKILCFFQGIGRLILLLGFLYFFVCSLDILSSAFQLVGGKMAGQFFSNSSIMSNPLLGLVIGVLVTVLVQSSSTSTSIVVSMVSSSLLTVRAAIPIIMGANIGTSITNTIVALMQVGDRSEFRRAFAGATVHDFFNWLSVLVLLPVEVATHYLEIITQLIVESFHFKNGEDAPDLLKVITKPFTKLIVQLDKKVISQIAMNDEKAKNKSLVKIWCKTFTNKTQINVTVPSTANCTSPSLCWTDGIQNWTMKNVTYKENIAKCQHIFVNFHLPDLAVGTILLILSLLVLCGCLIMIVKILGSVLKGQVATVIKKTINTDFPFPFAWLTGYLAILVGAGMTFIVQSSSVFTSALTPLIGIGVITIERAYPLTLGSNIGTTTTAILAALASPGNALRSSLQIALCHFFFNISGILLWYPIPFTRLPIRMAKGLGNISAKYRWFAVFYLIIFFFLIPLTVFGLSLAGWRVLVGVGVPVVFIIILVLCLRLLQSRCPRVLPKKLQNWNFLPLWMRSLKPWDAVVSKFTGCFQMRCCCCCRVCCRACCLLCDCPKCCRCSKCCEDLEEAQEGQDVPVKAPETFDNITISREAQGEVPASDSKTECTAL
Put plainly: Inhibitory effect on 33PO4 uptake into human NaPi-IIb-expressing CHO cells. It counts as cell-based. Conditions: read-out: IC50. In outline:
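Stable human NaPi-IIb CHO line (G418-selected), plated and cultured overnight; ³³PO4 added in buffer A and uptake run at room temperature. Cells washed with ice-cold buffer A, then uptake counted by liquid scintillation.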

For experiment [2], the system named is adenine-induced renal failure rat. As to the kind of experiment: Suppressive effect on rise in serum phosphorus concentration of adenine-induced renal failure rat (0.1% in feed, 3 days). Conditions: feed or water, 72 h, 0.1% of mass concentration in feed, read-out: Rate of inhibition (%) (suppression of a rise in serum phosphorus concentration). It counts as in vivo. The text has this: Test Example 5: Suppressive Effect on Rise in Serum Phosphorus Concentration of Adenine-Induced Renal Failure Rat
Adenine was forcedly administered orally to each Wistar male rat (7-8 weeks old) to impair renal functions and thereby prepare a hyperphosphatemia model (Katsumata K, Kusano K, Hirata M, Tsunemi K, Nagano N, Burke S K, Fukushima N. Sevelamer hydrochloride prevents ectopic calcification and renal osteodystrophy in chronic renal failure rats. Kidney Int. 2003 August; 64 (2): 441-50). Each test compound was mixed at a ratio of 0.1% of mass concentration with feed. The animal was fed with a given amount of the feed for 3 days. A group given feed non-supplemented with a test compound was used as a reference pathological group, and an adenine-unadministered group given feed non-supplemented with a test compound was used as a normal group. […] Serum phosphorus concentrations were measured by the Fiske-Subbarow method. The rate of suppression of a rise in serum phosphorus concentration was determined according to the following expression: Rate (%) of suppression of a rise in serum phosphorus concentration=(1−[(Serum phosphorus concentration of the test compound-treated pathological group)−(Serum phosphorus concentration of the normal group)]/[(Serum phosphorus concentration of the reference pathological group)−(Serum phosphorus concentration of the normal group)])×100

Experiment [3] deals with T2, human PiT-2 (Homo sapiens, UniProt Q08357).
T2 construct: expressed in transfected cells; host or cells: CHO cells
T2 sequence (Q08357 1-652): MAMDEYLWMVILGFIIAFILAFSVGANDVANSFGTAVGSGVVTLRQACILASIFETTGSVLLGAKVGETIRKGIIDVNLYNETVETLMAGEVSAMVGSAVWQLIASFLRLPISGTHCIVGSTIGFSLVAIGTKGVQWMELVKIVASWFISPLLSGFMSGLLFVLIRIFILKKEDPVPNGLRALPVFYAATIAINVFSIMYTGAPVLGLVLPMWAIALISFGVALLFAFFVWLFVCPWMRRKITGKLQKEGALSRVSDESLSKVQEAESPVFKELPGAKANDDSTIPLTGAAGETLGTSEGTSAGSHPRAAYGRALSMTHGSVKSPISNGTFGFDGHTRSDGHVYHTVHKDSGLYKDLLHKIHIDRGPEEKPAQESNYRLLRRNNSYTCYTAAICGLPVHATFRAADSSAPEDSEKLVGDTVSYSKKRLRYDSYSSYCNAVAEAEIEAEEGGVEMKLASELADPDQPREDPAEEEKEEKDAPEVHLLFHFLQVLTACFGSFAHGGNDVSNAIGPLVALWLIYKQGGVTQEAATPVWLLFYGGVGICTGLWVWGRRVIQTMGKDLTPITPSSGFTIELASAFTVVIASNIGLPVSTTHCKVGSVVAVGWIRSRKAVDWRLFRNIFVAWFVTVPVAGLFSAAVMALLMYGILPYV
Put plainly: Inhibitory effect on 33PO4 uptake into human PiT-2-expressing CHO cells. The format is cell-based. The note with it: pH 6.5, read-out: IC50 against 33PO4 uptake into human PiT-2-expressing cells. The gist of the method: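 CHO cells transfected with human PiT-2 or empty vector, then exposed to ^33PO4 at room temperature after compound preincubation. Uptake counted by scintillation. Inhibition computed from PiT-2 minus vector-cell uptake, relative to the DMSO control.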

SMILES strings stand for the structures.

Turning to `C[C@]12CCCN1N(Cc1ccc(OCCN3CCOCC3)c(F)c1F)C(=O)C(C(=O)Nc1ccc(C(F)(F)F)cc1-c1ccnc(C#N)c1)=C2O` [Example 52, (4aR)-N-[2-(2-Cyanopyridin-4-yl)-4-(trifluoromethyl)phenyl]-1-[[2,3-difluoro-4-(2-morpholin-4-ylethoxy)phenyl]methyl]-4-hydroxy-4a-methyl-2-oxo-6,7-dihydro-5H-pyrrolo[1,2-b]pyridazine-3-carboxamide], in experiment [1], the IC50 was 16.8 µM. Further, in experiment [2], the inhibition in vivo at 0.1 %, 0.1 % in feed was 20%.
As to `C[C@]12CCCN1N(Cc1cccc(F)c1F)C(=O)C(C(=O)Nc1ccc(C(F)(F)F)cc1-c1cc(C(F)(F)F)ncn1)=C2O` [Example 21, (4aR)-1-[(2,3-Difluoro-phenyl)methyl]-4-hydroxy-4a-methyl-2-oxo-N-[4-(trifluoromethyl)-2-[6-(trifluoromethyl)pyrimidin-4-yl]phenyl]-6,7-dihydro-5H-pyrrolo [1,2-b]pyridazine-3-carboxamide], the IC50 came out at 2.8 µM in experiment [1] and 3.6 µM in experiment [3]. In experiment [2], the inhibition in vivo at 0.1 %, 0.1 % in feed is 24%.
